According to patent US20170191057A1, “RNA EDITING BIOMARKERS FOR DIAGNOSIS, PHARMACOLOGICAL SCREENING AND PROGNOSTICATION IN CANCER” (REGENTS OF THE UNIVERSITY OF CALIFORNIA, priority 2014, published 2017):

Key:
[1] = tested on: ADAR1; test: qRT-PCR of total ADAR1 levels after 8-azaadenosine treatment; assay type: cell-based, human; conditions: cord blood, ABM, and blast crisis cells; FIG. 21A
Procedure: (A) 8-azaadenosine treatment results in reduced total ADAR1 levels by qRT-PCR, and (B) decreased RNA editing in APOBEC3D (Sites 1 & 2) by direct sequencing.
Cell lines, lentivirus-transduced primary hematopoietic cells, or FACS-purified primary cells were harvested in lysis buffer (Qiagen). RNA was purified using RNeasy extraction kits with a DNase (Qiagen) incubation step to digest any trace genomic DNA present. For RNA extraction from cell line lysates, 1-2×10^6 cells were extracted using RNeasy mini columns, and for primary cells, 5-10×10^4 cells were lysed and extracted using RNeasy micro columns. Genomic DNA was purified from equal numbers of cells lysed separately using the QIAamp DNA Blood Mini Kit (Qiagen) including an RNase A incubation step to digest any RNA present (Qiagen). RNA was stored at −80° C. and gDNA stored at −20° C. Immediately prior to reverse transcription of RNA samples, nucleic acid concentrations were quantified on a NanoDrop 2000 spectrophotometer (Thermo Scientific), and purity was considered acceptable if A260/A280 values were >1.8. […]

[2] = tested on: RNA editing in APOBEC3D (Sites 1 & 2); test: Direct sequencing of CSC-specific RNA editing biomarkers in APOBEC3D after 8-azaadenosine treatment; assay type: cell-based, human
Procedure: As proof-of-concept that small molecule inhibitors could block RNA editing activity, CD34^+ cells from a CML blast crisis patient were treated with vehicle or 1 μM 8-azaadenosine (Veliz et al., JACS 2003) for 24 hours and co-cultured on humanized bone marrow stromal cells (SL/M2) for 5 days. […] Thus, RESSq-PCR and RNA editing inhibitors is an allele-specific diagnostic assay that can be used for detection of primate-specific RNA editing events in cancer stem cells.
For PCR and targeted Sanger sequencing analysis, 1-2 μL of first-strand cDNA templates were prepared for PCR in 25-50 μL reaction volumes using the high-fidelity KOD Hot Start DNA Polymerase kit according to the manufacturer's instructions (EMD Millipore, Temecula, Calif.). “Outer” primers (Additional file 2: Table S2) used for sequencing produce predicted amplicons of approximately 150-250 nucleotides in length, and flank each editing site with approximately 50-100 bp on either side of the editing site to facilitate successful sequencing analysis. […] Sequence chromatograms were analyzed using 4Peaks (by A. Griekspoor and Tom Groothuis) and peak heights calculated using ImageJ (NIH). For RNA editing analysis of sequencing chromatograms, ratios of edited/WT peaks were calculated using the raw peak amplitude of each sequence trace.

## Nc1ncnc2c1nnn2[C@@H]1O[C@H](CO)[C@@H](O)[C@H]1O [8-azaadenosine]
[1]
  total ADAR1 levels by qRT-PCR: reduced
[2]; CD34+ cells from a CML blast crisis patient, 1 μM for 24 hours vs vehicle, co-cultured on SL/M2 stromal cells for 5 days
  edit/wild-type sequence ratios of two CSC-specific RNA editing biomarkers in APOBEC3D: reduction
[2]; cord blood, ABM, and blast crisis cells, FIG. 21B
  RNA editing in APOBEC3D (Sites 1 & 2) by direct sequencing: decreased
